Data taken from ChEMBL document CHEMBL5137041, “Total Syntheses and Cytotoxicity Evaluation of Coryaurone A and Representative Analogues” (J Nat Prod, 2022).

Assays:
HL-60 = assay: Cytotoxicity against human HL-60 cells assessed as cell growth inhibition incubated for 48 hrs by MTS assay; type: functional, cell-based; conditions: HL-60, 48 h
SW480 = assay: Cytotoxicity against human SW480 cells assessed as cell growth inhibition incubated for 48 hrs by MTS assay; type: functional, cell-based; conditions: SW480, 48 h

| SMILES | IC50 (HL-60) | IC50 (SW480) |
| --- | --- | --- |
| CC(C)=CCc1c(O)ccc2c1O/C(=C\c1ccc(O)c(O)c1)C2=O [LICOAGROAURONE] | 19 µM | 8.2 µM |
| CC(C)(O)[C@H]1Cc2c(ccc3c2O/C(=C\c2ccc(O)c(O)c2)C3=O)O1 | 18 µM | 13 µM |
| CC(C)(O)[C@H]1Cc2c(ccc3c2O/C(=C\c2ccc4[nH]ccc4c2)C3=O)O1 | > 40 µM | > 40 µM |
| Cc1cc(/C=C2\Oc3c(ccc4c3C[C@H](C(C)(C)O)O4)C2=O)ccc1O | > 40 µM | 11 µM |
| COc1ccc(/C=C2\Oc3c(ccc4c3C[C@H](C(C)(C)O)O4)C2=O)cc1 | > 40 µM | > 40 µM |
| CC(C)(O)[C@H]1Cc2c(ccc3c2O/C(=C\c2ccc([N+](=O)[O-])cc2)C3=O)O1 | > 40 µM | 9.2 µM |
| CC(C)(O)[C@H]1Cc2c(ccc3c2O/C(=C\c2ccc(O)c(Cl)c2)C3=O)O1 | 14 µM | 35 µM |
| CC(C)(O)[C@H]1Cc2c(ccc3c2O/C(=C\c2cccc4cccnc24)C3=O)O1 | > 40 µM | > 40 µM |
| CC(C)(O)[C@H]1Cc2c(ccc3c2O/C(=C\c2ccc(C(F)(F)F)cc2)C3=O)O1 | 16 µM | > 40 µM |
| CC(C)(O)[C@H]1Cc2c(ccc3c2O/C(=C\c2ccc(O)c(C(=O)O)c2)C3=O)O1 | > 40 µM | > 40 µM |
| CC(C)(O)[C@H]1Cc2c(ccc3c2O/C(=C\c2ccc(Cl)cc2)C3=O)O1 | > 40 µM | 7.7 µM |
| CC(C)(O)[C@H]1Cc2c(ccc3c2OC(Cc2ccc(O)c(O)c2)C3)O1 (stereo not given in full) | > 40 µM | > 40 µM |
| CC(C)(O)[C@H]1Cc2c(ccc3c2O/C(=C\c2cccs2)C3=O)O1 | > 40 µM | > 40 µM |
| CC(C)(O)[C@H]1Cc2c(ccc3c2O/C(=C\c2cc([N+](=O)[O-])ccc2O)C3=O)O1 | 12 µM | 23 µM |
| CC(C)(O)[C@H]1Cc2c(ccc3c2O/C(=C\c2ccco2)C3=O)O1 | 28 µM | 39 µM |
| CC(C)(O)[C@H]1Cc2c(ccc3c2O/C(=C\c2ccccc2)C3=O)O1 | > 40 µM | > 40 µM |
| CC(C)(O)[C@H]1Cc2c(ccc3c2O/C(=C\c2ccc(O)cc2)C3=O)O1 | > 40 µM | > 40 µM |
| COc1cc(/C=C2\Oc3c(ccc4c3C[C@H](C(C)(C)O)O4)C2=O)cc(OC)c1OC | 22 µM | > 40 µM |
| CC(C)(O)[C@H]1Cc2c(ccc3c2OCC3=O)O1 | > 40 µM | > 40 µM |
| COc1ccc(/C=C2\Oc3c(ccc4c3C[C@H](C(C)(C)O)O4)C2=O)cc1O | 3.9 µM | 20 µM |
